Laboratory results reported in ChEMBL document CHEMBL1201862, “PubChem BioAssay data set” (2004).
Activity calls are given as the source filed them.

Tests used:
Assay type in all cases: functional
[1] = molecular target: T1, Heat shock factor protein 1 (Mus musculus, UniProt P38532); assay: decrease of HSF1-responsive luciferase luminescence – cell-based, NIH3T3, dose retest, confirmation (AID 2382);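 further: NIH3T3 fibroblasts with HSF1-driven luciferase reporter stressed by proteasome inhibitor MG132; luminescence from HSF1-driven luciferase expression after 8 hours of MG132 stress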
T1 sequence (P38532 whole entry): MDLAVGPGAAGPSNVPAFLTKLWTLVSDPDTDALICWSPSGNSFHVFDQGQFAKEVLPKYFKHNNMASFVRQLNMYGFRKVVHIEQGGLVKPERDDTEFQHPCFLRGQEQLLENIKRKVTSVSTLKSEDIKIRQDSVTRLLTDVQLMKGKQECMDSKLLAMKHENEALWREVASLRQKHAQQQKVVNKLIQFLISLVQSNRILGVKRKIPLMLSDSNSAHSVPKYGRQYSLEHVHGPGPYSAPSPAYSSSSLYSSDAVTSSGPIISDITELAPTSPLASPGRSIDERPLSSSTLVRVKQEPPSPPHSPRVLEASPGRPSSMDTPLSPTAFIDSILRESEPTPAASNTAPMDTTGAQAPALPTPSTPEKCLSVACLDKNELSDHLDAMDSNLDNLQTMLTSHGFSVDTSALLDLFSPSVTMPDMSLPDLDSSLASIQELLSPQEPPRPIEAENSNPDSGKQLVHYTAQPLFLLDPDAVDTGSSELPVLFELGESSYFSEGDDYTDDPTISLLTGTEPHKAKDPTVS

[2] = molecular target: T2, G-protein coupled receptor 55 (Homo sapiens, UniProt Q9Y2T6); assay: inhibition of LPI-stimulated GPR55 beta-arrestin translocation – imaging, U2OS, beta-arrestin-GFP, LPI agonist, primary screen (AID 2013);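 further: antagonist potency measured as reduced agonist-driven arrestin aggregation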
T2 sequence (Q9Y2T6 whole entry): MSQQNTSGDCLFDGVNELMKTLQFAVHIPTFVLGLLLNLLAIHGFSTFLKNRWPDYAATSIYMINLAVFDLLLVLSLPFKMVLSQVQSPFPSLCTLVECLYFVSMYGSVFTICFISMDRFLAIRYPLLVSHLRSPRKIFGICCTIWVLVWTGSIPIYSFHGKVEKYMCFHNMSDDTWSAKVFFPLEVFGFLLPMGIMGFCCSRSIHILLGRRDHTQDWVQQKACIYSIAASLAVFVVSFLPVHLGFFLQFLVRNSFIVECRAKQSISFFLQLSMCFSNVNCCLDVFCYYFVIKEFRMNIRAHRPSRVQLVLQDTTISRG

Cannabinoid receptor 1 [3] = molecular target: T3, Cannabinoid receptor 1 (Homo sapiens, UniProt P21554); assay: SAR analysis of antagonists of the Cannabinoid Receptor 1 using an Image-Based Assay - Set 2. [Related pubchem assays (depositor defined):AID2013, AID2026]
T3 sequence (P21554 whole entry): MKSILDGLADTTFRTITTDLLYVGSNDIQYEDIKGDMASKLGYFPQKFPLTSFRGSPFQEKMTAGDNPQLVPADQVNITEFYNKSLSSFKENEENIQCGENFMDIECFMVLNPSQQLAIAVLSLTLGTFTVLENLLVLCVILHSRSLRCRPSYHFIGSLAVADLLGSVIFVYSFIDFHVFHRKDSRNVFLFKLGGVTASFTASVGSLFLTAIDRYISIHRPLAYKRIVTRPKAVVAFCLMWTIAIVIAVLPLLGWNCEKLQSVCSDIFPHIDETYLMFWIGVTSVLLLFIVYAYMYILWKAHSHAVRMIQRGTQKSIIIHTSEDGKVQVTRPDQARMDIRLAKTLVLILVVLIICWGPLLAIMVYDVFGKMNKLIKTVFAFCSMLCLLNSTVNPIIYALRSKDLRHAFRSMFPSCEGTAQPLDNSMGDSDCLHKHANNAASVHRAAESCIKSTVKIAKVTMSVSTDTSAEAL

[4] = molecular target: T4, G-protein coupled receptor 35 (Homo sapiens, UniProt Q9HC97); assay: SAR analysis of Agonists of the GPR35 Receptor using an Image-Based Assay - Set 2. [Related pubchem assays (depositor defined):AID2013, AID2026]
T4 sequence (Q9HC97 whole entry): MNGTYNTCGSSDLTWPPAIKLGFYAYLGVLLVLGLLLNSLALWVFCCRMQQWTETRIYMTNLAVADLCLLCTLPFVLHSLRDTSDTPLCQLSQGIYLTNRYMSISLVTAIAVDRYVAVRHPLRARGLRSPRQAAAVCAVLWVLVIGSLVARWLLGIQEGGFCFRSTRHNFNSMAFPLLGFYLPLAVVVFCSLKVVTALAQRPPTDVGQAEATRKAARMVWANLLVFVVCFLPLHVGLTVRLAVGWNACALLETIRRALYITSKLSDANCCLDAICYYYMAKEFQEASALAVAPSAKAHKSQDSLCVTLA

Cannabinoid receptor 2 [5] = molecular target: T5, Cannabinoid receptor 2 (Homo sapiens, UniProt P34972); assay: SAR analysis of antagonists of the Cannabinoid Receptor 2 using an Image-Based Assay. [Related pubchem assays (depositor defined):AID2013, AID2026]
T5 sequence (P34972 whole entry): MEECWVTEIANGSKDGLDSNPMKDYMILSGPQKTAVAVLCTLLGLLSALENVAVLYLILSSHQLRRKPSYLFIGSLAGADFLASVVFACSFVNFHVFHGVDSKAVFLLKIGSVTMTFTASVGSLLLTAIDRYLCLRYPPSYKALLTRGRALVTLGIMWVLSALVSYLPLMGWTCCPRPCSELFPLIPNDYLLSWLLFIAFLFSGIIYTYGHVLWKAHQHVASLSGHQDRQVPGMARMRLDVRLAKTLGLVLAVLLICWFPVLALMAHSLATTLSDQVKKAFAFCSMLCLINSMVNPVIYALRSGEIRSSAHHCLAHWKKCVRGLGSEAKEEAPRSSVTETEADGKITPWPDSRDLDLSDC

Cannabinoid receptor 1 [6] = molecular target: T3, Cannabinoid receptor 1; assay: SAR analysis of agonists of the Cannabinoid Receptor 1 using an Image-Based Assay - Set 2. [Related pubchem assays (depositor defined):AID2013, AID2026]
[7] = molecular target: T4, G-protein coupled receptor 35; assay: SAR analysis of Antagonists of the GPR35 Receptor using an Image-Based Assay - Set 3. [Related pubchem assays (depositor defined):AID2013, AID2026]
[8] = molecular target: T2, G-protein coupled receptor 55; assay: blockade of LPI-induced GPR55 arrestin translocation – imaging, U2OS, beta-arrestin-GFP, LPI agonist, set 2, SAR follow-up (AID 2820)
Cannabinoid receptor 2 [9] = molecular target: T5, Cannabinoid receptor 2; assay: SAR analysis of agonists of the Cannabinoid Receptor 2 using an Image-Based Assay. [Related pubchem assays (depositor defined):AID2013, AID2026]
[10] = molecular target: T2, G-protein coupled receptor 55; assay: selective activators of receptor GPR55 – imaging, U2OS cells, beta-arrestin-GFP redistribution, primary screen (AID 1961)
Cannabinoid receptor 2 [11] = molecular target: T5, Cannabinoid receptor 2; assay: SAR analysis of antagonists of the Cannabinoid Receptor 2 using an Image-Based Assay - Set 2. [Related pubchem assays (depositor defined):AID1961, AID1965]
Cannabinoid receptor 2 [12] = molecular target: T5, Cannabinoid receptor 2; assay: SAR analysis of agonists of the Cannabinoid Receptor 2 using an Image-Based Assay - Set 2. [Related pubchem assays (depositor defined):AID1961, AID1965]
[13] = molecular target: T2, G-protein coupled receptor 55; assay: SAR analysis of selective Agonists of GPR55 using an Image-Based Assay. [Related pubchem assays (depositor defined):AID1961, AID1965]
Cannabinoid receptor 1 [14] = molecular target: T3, Cannabinoid receptor 1; assay: SAR analysis of antagonists of the Cannabinoid Receptor 1 using an Image-Based Assay. [Related pubchem assays (depositor defined):AID1961, AID1965]

SMILES	EC50 [1]	IC50 [2]	IC50 (Cannabinoid receptor 1 [3])	EC50 [4]	IC50 (Cannabinoid receptor 2 [5])	EC50 (Cannabinoid receptor 1 [6])	IC50 [7]	IC50 [8]	EC50 (Cannabinoid receptor 2 [9])	EC50 [10]	IC50 (Cannabinoid receptor 2 [11])	EC50 (Cannabinoid receptor 2 [12])	EC50 [13]	IC50 (Cannabinoid receptor 1 [14])
CCN1C(=O)C(c2ccc(O)cc2)(c2ccc(O)cc2)c2ccccc21	> 195 µM (not active)	1.74 µM (active)	22 µM (inactive)	> 32 µM (inactive)	> 32 µM (inactive)	> 32 µM (inactive)	> 32 µM (inactive)	0.506 µM (active)	> 32 µM (inactive)	–	–	–	–	–
CC(C)Oc1ccc(S(=O)(=O)N2CCOCC2)cc1NC(=O)c1ccc(N2CCCC2=O)cc1	–	–	–	–	–	–	–	–	–	0.969 µM (active)	> 32 µM (inactive)	> 32 µM (inactive)	0.88 µM (active)	> 32 µM (inactive)
